Experimental data as given in article PMC11823630, “In vitro potentiation of tetracyclines in Pseudomonas aeruginosa by RW01, a new cyclic peptide” (Antimicrobial Agents and Chemotherapy, 2024).
≈ marks a conversion by molar mass, not a printed value.

How the values were obtained:
[1] = test system: PAO1 mutant MIN4_RW01_2, pmrB(F124S); assay: microbe, parasite or virus in culture; assay type: cell-based; conditions: Pseudomonas aeruginosa, PAO1, read-out: MIC, Sensititre
Method: (§1) Selection of resistant mutants was performed for minocycline with and without RW01 in three independent replicates for wild-type P. aeruginosa reference strain PAO1. Tubes containing Mueller-Hinton broth (MHB) were inoculated and incubated for 24 h at 37°C. Afterward, 1/100 dilution of each tube was incubated at 37°C in MHB to late-exponential growth phase, measured by spectrophotometry at OD600. […] A control plate without antibiotic was included as inoculum control. After overnight incubation, colony counting of each treatment was performed to analyze the generation of resistant population. The mutant prevention concentration (MPC) was defined as the lowest concentration of antibiotic yielding no growth of resistant mutants. Selected mutants were checked for susceptibility profiles by using a Sensititre custom plate (Thermo Fisher Scientific, Massachusetts, USA) for Gram-negative bacteria, following the manufacturer’s instructions.

[2] = test system: PAO1 mutant MIN1_RW01_4, pmrB(F124L); assay: microbe, parasite or virus in culture; assay type: cell-based; conditions: Pseudomonas aeruginosa, PAO1, read-out: MIC, Sensititre
Method: as §1

[3] = test system: PAO1 mutant MIN4_RW01_4, pmrB(Y98N); assay: MIC, Sensititre custom plate; assay type: cell-based; conditions: Pseudomonas aeruginosa, PAO1, read-out: MIC, Sensititre
Method: as §1

[4] = test system: PAO1 mutant MIN16_4, nalC(T50P), pilM(Q62X); assay: MIC, Sensititre custom plate; assay type: cell-based; conditions: Pseudomonas aeruginosa, PAO1, read-out: MIC, Sensititre
Method: as §1

[5] = test system: PAO1 mutant MIN1_RW01_1, pmrB(Y98N); assay: MIC, Sensititre custom plate; assay type: cell-based; conditions: Pseudomonas aeruginosa, PAO1, read-out: MIC, Sensititre
Method: as §1

[6] = test system: PAO1 mutant MIN8_1, nalD(R3C), pilM(Q62X); assay: MIC, Sensititre custom plate; assay type: cell-based; conditions: Pseudomonas aeruginosa, PAO1, read-out: MIC, Sensititre
Method: as §1

[7] = test system: PAO1 mutant MIN2_RW01_3, parS(V152A); assay: MIC, Sensititre custom plate; assay type: cell-based; conditions: Pseudomonas aeruginosa, PAO1, read-out: MIC, Sensititre
Method: as §1

P. aeruginosa PAO1, WT = assay: MIC, Sensititre custom plate; assay type: cell-based; conditions: Pseudomonas aeruginosa, PAO1, read-out: MIC, Sensititre
Method: as §1

[8] = test system: PAO1 mutant MIN2_RW01_1, pmrB(V215L); assay: MIC, Sensititre custom plate; assay type: cell-based; conditions: Pseudomonas aeruginosa, PAO1, read-out: MIC, Sensititre
Method: as §1

[9] = test system: PAO1 mutant MIN4_RW01_1, pmrB(R429H); assay: MIC, Sensititre custom plate; assay type: cell-based; conditions: Pseudomonas aeruginosa, PAO1, read-out: MIC, Sensititre
Method: as §1

[10] = test system: PAO1 mutant MIN16_3, nfxB(nt79∆14), pilB(N349K); assay: MIC, Sensititre custom plate; assay type: cell-based; conditions: Pseudomonas aeruginosa, PAO1, read-out: MIC, Sensititre
Method: as §1

[11] = test system: PAO1 mutant MIN1_RW01_2, mexR(G58E), pilB(G326D), hutC(Y181X); assay: MIC, Sensititre custom plate; assay type: cell-based; conditions: Pseudomonas aeruginosa, PAO1, read-out: MIC, Sensititre
Method: as §1

[12] = test system: PAO1 mutant MIN8_3, pilZ(nt18InsT); assay: MIC, Sensititre custom plate; assay type: cell-based; conditions: Pseudomonas aeruginosa, PAO1, read-out: MIC, Sensititre
Method: as §1

[13] = test system: PAO1 mutant MIN4_RW01_3, pmrB(M292T); assay: MIC, Sensititre custom plate; assay type: cell-based; conditions: Pseudomonas aeruginosa, PAO1, read-out: MIC, Sensititre
Method: as §1

[14] = test system: PAO1 mutant MIN16_2, nalC(aa9∆4), pilQ(nt46∆1); assay: MIC, Sensititre custom plate; assay type: cell-based; conditions: Pseudomonas aeruginosa, PAO1, read-out: MIC, Sensititre
Method: as §1

[15] = test system: PAO1 mutant MIN2_RW01_4, pmrB(M292T); assay: MIC, Sensititre custom plate; assay type: cell-based; conditions: Pseudomonas aeruginosa, PAO1, read-out: MIC, Sensititre
Method: as §1

[16] = test system: PAO1 mutant MIN1_RW01_3, pmrB(V215L); assay: MIC, Sensititre custom plate; assay type: cell-based; conditions: Pseudomonas aeruginosa, PAO1, read-out: MIC, Sensititre
Method: as §1

[17] = test system: PAO1 mutant MIN16_1, nalD(T43P); assay: MIC, Sensititre custom plate; assay type: cell-based; conditions: Pseudomonas aeruginosa, PAO1, read-out: MIC, Sensititre
Method: as §1

[18] = test system: PAO1 mutant MIN8_2, pilZ(nt18InsT); assay: MIC, Sensititre custom plate; assay type: cell-based; conditions: Pseudomonas aeruginosa, PAO1, read-out: MIC, Sensititre
Method: as §1

[19] = test system: PAO1 mutant MIN2_RW01_2, pmrB(M292T); assay: MIC, Sensititre custom plate; assay type: cell-based; conditions: Pseudomonas aeruginosa, PAO1, read-out: MIC, Sensititre
Method: as §1

[20] = test system: PAO1 mutant MIN32_1, mexR(R63H), pilB(N349K), PA0646(V316G); assay: MIC, Sensititre custom plate; assay type: cell-based; conditions: Pseudomonas aeruginosa, PAO1, read-out: MIC, Sensititre
Method: as §1

[21] = test system: PAO1 mutant MIN8_4, pilZ(nt18InsT); assay: MIC, Sensititre custom plate; assay type: cell-based; conditions: Pseudomonas aeruginosa, PAO1, read-out: MIC, Sensititre
Method: as §1

P. aeruginosa PAOΔmexZ = assay: MIC, CLSI broth microdilution in BD Phoenix AST Broth; assay type: cell-based, Pseudomonas aeruginosa; conditions: Pseudomonas aeruginosa, strain PAOΔmexZ; agent alone; 37°C, 18–22 h; three biological replicates
Method: (§2) MIC for RW01 was also tested.
(§3) FIC of RW01 (FICRW01)=MIC of RW01 in combination/MIC of RW01 alone,FIC of antibiotic (FICATB)=MIC of ATB in combination/MIC of ATB alone,FICI=FICRW01 +FICATB.
(§4) FICI was interpreted as follows: synergistic effect if FICI is ≤0.5; additive effect if 0.5 < FICI ≤ 1.0; indifferent effect if 1.0 < FICI ≤ 2.0; and finally, antagonistic effect if FICI is >2.0. The average FICI considering the antibiotic MIC (no growth in any of the replicates) at different concentrations of RW01 was calculated ([28]).

P. aeruginosa 41A = assay: as above; assay type: cell-based, Pseudomonas aeruginosa; conditions: Pseudomonas aeruginosa; strain 41A; agent alone; 37°C, 18–22 h; three biological replicates
Method: as §2, §3, §4

P. aeruginosa PAOUW∆oprF = assay: as above; assay type: cell-based, Pseudomonas aeruginosa; conditions: Pseudomonas aeruginosa, strain PAOUWΔoprF; agent alone; 37°C, 18–22 h; three biological replicates
Method: as §2, §3, §4

P. aeruginosa 125B = assay: as above; assay type: cell-based, Pseudomonas aeruginosa; conditions: Pseudomonas aeruginosa; strain 125B; agent alone; 37°C, 18–22 h; three biological replicates
Method: as §2, §3, §4

P. aeruginosa PAOΔoprM = assay: as above; assay type: cell-based, Pseudomonas aeruginosa; conditions: Pseudomonas aeruginosa
Method: as §2, §3, §4

P. aeruginosa PAOΔmexR = assay: as above; assay type: cell-based, Pseudomonas aeruginosa; conditions: Pseudomonas aeruginosa
Method: as §2, §3, §4

P. aeruginosa PAO1 = assay: as above; assay type: cell-based, Pseudomonas aeruginosa; conditions: Pseudomonas aeruginosa, PAO1, strain PAO1; agent alone; 37°C, 18–22 h; three biological replicates; read-out: MIC
Method: as §2, §3, §4

P. aeruginosa PAOUW = assay: as above; assay type: cell-based, Pseudomonas aeruginosa; conditions: Pseudomonas aeruginosa, strain PAOUW; agent alone; 37°C, 18–22 h; three biological replicates; read-out: MIC
Method: as §2, §3, §4

P. aeruginosa 41B = assay: as above; assay type: cell-based, Pseudomonas aeruginosa; conditions: Pseudomonas aeruginosa; strain 41B; agent alone; 37°C, 18–22 h; three biological replicates
Method: as §2, §3, §4

P. aeruginosa 125A = assay: as above; assay type: cell-based, Pseudomonas aeruginosa; conditions: Pseudomonas aeruginosa; strain 125A; agent alone; 37°C, 18–22 h; three biological replicates
Method: as §2, §3, §4

Compound | MIC [1] [µg/mL] | MIC [2] [µg/mL] | MIC [3] [µg/mL] | MIC [4] [µg/mL] | MIC [5] [µg/mL] | MIC [6] [µg/mL] | MIC [7] [µg/mL] | MIC (P. aeruginosa PAO1, WT) [µg/mL] | MIC [8] [µg/mL] | MIC [9] [µg/mL] | MIC [10] [µg/mL] | MIC [11] [µg/mL] | MIC [12] [µg/mL] | MIC [13] [µg/mL] | MIC [14] [µg/mL] | MIC [15] [µg/mL] | MIC [16] [µg/mL] | MIC [17] [µg/mL] | MIC [18] [µg/mL] | MIC [19] [µg/mL] | further results
CC1(C)S[C@@H]2[C@H](NC(=O)[C@H](C(=O)O)c3ccsc3)C(=O)N2[C@H]1C(=O)O [TIC, ticarcillin] | 16 (≈ 41.6 µM) | 16 (≈ 41.6 µM) | 16 (≈ 41.6 µM) | 64 (≈ 166 µM) | 16 (≈ 41.6 µM) | 64 (≈ 166 µM) | 16 (≈ 41.6 µM) | 16 (≈ 41.6 µM) | 64 (≈ 166 µM) | 128 (≈ 333 µM) | 16 (≈ 41.6 µM) | 128 (≈ 333 µM) | 64 (≈ 166 µM) | 16 (≈ 41.6 µM) | 64 (≈ 166 µM) | 32 (≈ 83.2 µM) | 16 (≈ 41.6 µM) | 64 (≈ 166 µM) | 64 (≈ 166 µM) | 32 (≈ 83.2 µM) | MIC [20]: 128 µg/mL (≈ 333 µM); MIC [21]: 64 µg/mL (≈ 166 µM)
NCC[C@H](O)C(=O)N[C@@H]1C[C@H](N)[C@@H](O[C@H]2O[C@H](CN)[C@@H](O)[C@H](O)[C@H]2O)[C@H](O)[C@H]1O[C@H]1O[C@H](CO)[C@@H](O)[C@H](N)[C@H]1O [AMI, amikacin] | 4 (≈ 6.83 µM) | ≤ 2 | 4 (≈ 6.83 µM) | ≤ 2 | 4 (≈ 6.83 µM) | ≤ 2 | 8 (≈ 13.7 µM) | ≤ 2 | 4 (≈ 6.83 µM) | 2 to 4 (≈ 3.42 to 6.83 µM) | ≤ 2 | ≤ 2 | ≤ 2 | 4 (≈ 6.83 µM) | ≤ 2 | 4 (≈ 6.83 µM) | 4 (≈ 6.83 µM) | 4 (≈ 6.83 µM) | ≤ 2 | 4 (≈ 6.83 µM) | MIC [20]: ≤ 2 µg/mL; MIC [21]: ≤ 2 µg/mL
CC(C)(O/N=C(\C(=O)N[C@@H]1C(=O)N2C(C(=O)[O-])=C(C[n+]3ccccc3)CS[C@H]12)c1csc(N)n1)C(=O)O [Ceftazidime, ceftazidime] | ≤ 1 | 2 (≈ 3.66 µM) | ≤ 1 | 4 (≈ 7.32 µM) | ≤ 1 | 4 (≈ 7.32 µM) | 2 (≈ 3.66 µM) | 1 to 2 (≈ 1.83 to 3.66 µM) | 2 (≈ 3.66 µM) | 4 (≈ 7.32 µM) | 2 (≈ 3.66 µM) | 4 (≈ 7.32 µM) | 4 (≈ 7.32 µM) | ≤ 1 | 4 (≈ 7.32 µM) | 2 (≈ 3.66 µM) | ≤ 1 | 4 (≈ 7.32 µM) | 4 (≈ 7.32 µM) | 2 (≈ 3.66 µM) | MIC (P. aeruginosa PAOΔmexZ): 4 µg/mL; MIC (P. aeruginosa 41A): 4 µg/mL; MIC (P. aeruginosa PAOUW∆oprF): 2 µg/mL; MIC (P. aeruginosa 125B): 4 µg/mL; MIC (P. aeruginosa PAOΔoprM): 2 µg/mL; MIC (P. aeruginosa PAOΔmexR): 4 µg/mL; MIC (P. aeruginosa PAO1): 2 µg/mL; MIC (P. aeruginosa PAOUW): 2 µg/mL; MIC (P. aeruginosa 41B): 8 µg/mL; MIC (P. aeruginosa 125A): 8 µg/mL; MIC [20]: 4 µg/mL (≈ 7.32 µM); MIC [21]: 4 µg/mL (≈ 7.32 µM)
